Results from ChEMBL document CHEMBL5291721, “A preclinical secondary pharmacology resource illuminates target-adverse drug reaction associations of marketed drugs” (Nat Commun, 2023).

Tests used:
[1] = biological target: Adenosine receptor A2a (Homo sapiens, UniProt P29274)
[2] = biological target: T1, Alpha-2A adrenergic receptor (Homo sapiens, UniProt P08913); assay type: functional, cell-based
T1 sequence (P08913 whole entry): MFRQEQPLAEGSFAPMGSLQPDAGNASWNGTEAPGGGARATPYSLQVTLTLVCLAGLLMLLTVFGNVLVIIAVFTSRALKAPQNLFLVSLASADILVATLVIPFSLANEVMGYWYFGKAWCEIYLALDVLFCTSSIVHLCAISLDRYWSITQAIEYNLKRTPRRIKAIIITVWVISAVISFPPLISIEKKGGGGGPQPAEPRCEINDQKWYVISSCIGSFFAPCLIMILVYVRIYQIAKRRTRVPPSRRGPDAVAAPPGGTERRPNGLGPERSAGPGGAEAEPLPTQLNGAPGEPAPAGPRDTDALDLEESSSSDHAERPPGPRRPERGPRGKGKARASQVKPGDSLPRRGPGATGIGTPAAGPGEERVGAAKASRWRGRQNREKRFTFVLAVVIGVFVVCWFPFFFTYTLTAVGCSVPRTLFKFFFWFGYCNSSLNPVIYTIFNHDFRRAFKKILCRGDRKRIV

[3] = biological target: Beta-2 adrenergic receptor (Homo sapiens, UniProt P07550)
Sequence of Beta-2 adrenergic receptor (P07550 whole entry): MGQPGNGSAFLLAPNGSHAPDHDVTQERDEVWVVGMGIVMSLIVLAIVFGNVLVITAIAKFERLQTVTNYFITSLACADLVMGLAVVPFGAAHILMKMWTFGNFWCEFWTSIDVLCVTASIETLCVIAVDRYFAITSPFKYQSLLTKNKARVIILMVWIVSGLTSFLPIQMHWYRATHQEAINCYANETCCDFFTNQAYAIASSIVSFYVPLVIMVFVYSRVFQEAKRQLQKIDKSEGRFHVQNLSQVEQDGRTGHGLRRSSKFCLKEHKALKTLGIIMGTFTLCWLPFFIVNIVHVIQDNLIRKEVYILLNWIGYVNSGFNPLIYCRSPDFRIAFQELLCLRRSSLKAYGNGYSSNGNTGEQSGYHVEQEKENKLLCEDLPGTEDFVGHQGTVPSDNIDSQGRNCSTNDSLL

[4] = biological target: T2, B2 bradykinin receptor (Homo sapiens, UniProt P30411)
T2 sequence (P30411 whole entry): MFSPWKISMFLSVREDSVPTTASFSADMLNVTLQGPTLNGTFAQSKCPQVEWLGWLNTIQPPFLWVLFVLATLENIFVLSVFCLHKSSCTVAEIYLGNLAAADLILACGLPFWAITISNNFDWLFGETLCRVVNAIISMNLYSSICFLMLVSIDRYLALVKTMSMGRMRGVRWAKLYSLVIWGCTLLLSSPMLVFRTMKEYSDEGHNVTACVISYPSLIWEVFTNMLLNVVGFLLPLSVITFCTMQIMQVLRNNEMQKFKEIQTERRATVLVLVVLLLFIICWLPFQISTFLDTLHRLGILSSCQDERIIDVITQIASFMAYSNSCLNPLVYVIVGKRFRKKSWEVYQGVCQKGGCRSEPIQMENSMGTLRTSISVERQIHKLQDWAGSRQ

[5] = biological target: T3, Estrogen receptor (Homo sapiens, UniProt P03372)
T3 sequence (P03372 whole entry): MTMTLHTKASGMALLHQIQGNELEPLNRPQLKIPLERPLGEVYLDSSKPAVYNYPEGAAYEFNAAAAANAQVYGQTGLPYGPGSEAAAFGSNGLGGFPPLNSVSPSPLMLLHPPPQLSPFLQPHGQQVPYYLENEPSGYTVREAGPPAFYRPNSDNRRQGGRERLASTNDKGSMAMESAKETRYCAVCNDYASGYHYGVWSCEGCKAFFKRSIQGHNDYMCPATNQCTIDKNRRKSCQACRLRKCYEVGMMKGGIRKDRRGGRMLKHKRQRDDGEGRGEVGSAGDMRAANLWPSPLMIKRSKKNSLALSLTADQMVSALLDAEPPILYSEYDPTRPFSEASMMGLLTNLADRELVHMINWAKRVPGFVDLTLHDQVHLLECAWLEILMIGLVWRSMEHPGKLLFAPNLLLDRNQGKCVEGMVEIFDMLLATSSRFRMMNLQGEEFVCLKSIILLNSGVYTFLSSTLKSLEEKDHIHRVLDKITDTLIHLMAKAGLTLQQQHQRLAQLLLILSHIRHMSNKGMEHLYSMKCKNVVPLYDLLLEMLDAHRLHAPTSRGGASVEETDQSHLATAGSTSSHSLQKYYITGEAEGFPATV

[6] = biological target: Histamine H2 receptor (Homo sapiens, UniProt P25021); assay type: functional, cell-based
Sequence of Histamine H2 receptor (P25021 whole entry): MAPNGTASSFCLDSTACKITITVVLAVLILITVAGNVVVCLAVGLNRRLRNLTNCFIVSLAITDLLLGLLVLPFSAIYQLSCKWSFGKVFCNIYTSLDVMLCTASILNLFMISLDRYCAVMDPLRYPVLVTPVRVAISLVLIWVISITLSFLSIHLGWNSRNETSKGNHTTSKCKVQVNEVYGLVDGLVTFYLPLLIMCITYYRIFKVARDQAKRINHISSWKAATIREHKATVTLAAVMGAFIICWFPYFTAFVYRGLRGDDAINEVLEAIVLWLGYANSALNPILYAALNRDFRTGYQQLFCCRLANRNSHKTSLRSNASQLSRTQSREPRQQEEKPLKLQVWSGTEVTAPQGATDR

[7] = biological target: T4, 5-hydroxytryptamine receptor 2C (Homo sapiens, UniProt P28335)
T4 sequence (P28335 whole entry): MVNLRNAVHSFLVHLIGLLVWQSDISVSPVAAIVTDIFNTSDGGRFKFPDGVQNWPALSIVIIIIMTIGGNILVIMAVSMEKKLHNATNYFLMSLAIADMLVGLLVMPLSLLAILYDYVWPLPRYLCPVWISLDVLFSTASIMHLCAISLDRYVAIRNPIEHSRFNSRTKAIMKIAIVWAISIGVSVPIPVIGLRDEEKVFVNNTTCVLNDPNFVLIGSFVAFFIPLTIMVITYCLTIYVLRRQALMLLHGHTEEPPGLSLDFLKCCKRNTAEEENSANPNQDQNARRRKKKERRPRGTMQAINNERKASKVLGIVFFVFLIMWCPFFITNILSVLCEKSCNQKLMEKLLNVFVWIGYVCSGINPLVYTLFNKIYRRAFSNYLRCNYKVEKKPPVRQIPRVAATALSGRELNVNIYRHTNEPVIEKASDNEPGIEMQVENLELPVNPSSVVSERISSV

[8] = biological target: Motilin receptor (Homo sapiens, UniProt O43193)
Sequence of Motilin receptor (O43193 whole entry): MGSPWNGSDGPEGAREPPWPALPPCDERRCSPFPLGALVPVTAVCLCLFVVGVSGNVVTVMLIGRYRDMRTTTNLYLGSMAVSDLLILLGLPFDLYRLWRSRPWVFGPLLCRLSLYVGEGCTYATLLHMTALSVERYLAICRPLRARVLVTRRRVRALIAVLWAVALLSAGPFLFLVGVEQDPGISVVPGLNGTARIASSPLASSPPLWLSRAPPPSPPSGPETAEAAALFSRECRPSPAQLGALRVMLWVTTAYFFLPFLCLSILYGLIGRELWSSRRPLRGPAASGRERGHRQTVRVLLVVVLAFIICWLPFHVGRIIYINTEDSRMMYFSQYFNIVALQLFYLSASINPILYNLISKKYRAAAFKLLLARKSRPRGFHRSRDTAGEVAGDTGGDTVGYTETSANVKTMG

[9] = biological target: Sodium-dependent dopamine transporter (Homo sapiens, UniProt Q01959)
Sequence of Sodium-dependent dopamine transporter (Q01959 whole entry): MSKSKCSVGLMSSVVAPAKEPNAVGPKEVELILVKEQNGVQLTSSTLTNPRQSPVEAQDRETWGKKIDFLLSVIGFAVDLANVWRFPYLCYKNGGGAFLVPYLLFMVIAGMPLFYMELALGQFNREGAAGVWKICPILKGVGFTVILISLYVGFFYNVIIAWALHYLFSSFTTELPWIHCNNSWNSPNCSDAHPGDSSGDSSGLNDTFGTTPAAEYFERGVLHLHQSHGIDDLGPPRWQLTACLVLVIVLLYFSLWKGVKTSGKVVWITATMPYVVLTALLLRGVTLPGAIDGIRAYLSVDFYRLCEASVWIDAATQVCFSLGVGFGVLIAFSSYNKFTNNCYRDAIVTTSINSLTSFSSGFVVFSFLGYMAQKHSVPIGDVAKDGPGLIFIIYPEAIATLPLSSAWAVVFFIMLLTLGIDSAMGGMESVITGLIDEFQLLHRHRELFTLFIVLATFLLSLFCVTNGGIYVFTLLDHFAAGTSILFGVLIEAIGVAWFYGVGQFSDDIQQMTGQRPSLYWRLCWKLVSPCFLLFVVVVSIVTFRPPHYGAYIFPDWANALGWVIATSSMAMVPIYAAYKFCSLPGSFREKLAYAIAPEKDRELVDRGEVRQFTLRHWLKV

[10] = biological target: Sodium-dependent noradrenaline transporter (Homo sapiens, UniProt P23975)
Sequence of Sodium-dependent noradrenaline transporter (P23975 whole entry): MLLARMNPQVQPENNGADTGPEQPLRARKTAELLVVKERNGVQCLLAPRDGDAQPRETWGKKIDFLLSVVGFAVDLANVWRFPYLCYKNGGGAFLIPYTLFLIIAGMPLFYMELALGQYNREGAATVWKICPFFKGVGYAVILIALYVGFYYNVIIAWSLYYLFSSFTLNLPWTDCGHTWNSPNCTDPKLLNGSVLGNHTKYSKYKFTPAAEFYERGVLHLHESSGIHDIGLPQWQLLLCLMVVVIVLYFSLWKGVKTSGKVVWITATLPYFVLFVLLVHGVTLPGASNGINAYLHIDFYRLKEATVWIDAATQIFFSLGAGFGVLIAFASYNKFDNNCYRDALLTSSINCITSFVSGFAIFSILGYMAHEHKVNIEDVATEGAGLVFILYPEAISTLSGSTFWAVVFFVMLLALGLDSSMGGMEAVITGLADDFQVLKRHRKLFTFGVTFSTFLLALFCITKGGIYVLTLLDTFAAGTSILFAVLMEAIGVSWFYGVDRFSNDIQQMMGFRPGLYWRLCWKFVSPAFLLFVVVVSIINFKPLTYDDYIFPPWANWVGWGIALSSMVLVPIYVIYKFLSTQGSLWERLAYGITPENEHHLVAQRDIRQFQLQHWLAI

[11] = biological target: T5, Amine oxidase [flavin-containing] A (Homo sapiens, UniProt P21397); assay type: functional
T5 sequence (P21397 whole entry): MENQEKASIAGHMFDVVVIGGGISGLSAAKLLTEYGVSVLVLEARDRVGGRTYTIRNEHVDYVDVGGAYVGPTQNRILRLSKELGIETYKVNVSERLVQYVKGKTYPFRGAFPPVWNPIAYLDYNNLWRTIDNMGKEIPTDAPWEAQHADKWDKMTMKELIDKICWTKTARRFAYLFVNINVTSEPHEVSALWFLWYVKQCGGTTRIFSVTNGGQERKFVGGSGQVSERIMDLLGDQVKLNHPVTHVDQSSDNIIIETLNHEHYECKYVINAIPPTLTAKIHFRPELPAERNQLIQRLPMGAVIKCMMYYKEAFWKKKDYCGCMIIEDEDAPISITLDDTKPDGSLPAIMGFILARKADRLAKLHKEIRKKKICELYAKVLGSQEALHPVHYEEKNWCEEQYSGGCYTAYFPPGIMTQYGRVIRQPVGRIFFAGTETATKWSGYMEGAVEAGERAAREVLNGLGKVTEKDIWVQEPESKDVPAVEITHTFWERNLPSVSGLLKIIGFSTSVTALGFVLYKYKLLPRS

[12] = biological target: cGMP-inhibited 3',5'-cyclic phosphodiesterase 3A (Homo sapiens, UniProt Q14432); assay type: functional
Sequence of cGMP-inhibited 3',5'-cyclic phosphodiesterase 3A (Q14432 whole entry): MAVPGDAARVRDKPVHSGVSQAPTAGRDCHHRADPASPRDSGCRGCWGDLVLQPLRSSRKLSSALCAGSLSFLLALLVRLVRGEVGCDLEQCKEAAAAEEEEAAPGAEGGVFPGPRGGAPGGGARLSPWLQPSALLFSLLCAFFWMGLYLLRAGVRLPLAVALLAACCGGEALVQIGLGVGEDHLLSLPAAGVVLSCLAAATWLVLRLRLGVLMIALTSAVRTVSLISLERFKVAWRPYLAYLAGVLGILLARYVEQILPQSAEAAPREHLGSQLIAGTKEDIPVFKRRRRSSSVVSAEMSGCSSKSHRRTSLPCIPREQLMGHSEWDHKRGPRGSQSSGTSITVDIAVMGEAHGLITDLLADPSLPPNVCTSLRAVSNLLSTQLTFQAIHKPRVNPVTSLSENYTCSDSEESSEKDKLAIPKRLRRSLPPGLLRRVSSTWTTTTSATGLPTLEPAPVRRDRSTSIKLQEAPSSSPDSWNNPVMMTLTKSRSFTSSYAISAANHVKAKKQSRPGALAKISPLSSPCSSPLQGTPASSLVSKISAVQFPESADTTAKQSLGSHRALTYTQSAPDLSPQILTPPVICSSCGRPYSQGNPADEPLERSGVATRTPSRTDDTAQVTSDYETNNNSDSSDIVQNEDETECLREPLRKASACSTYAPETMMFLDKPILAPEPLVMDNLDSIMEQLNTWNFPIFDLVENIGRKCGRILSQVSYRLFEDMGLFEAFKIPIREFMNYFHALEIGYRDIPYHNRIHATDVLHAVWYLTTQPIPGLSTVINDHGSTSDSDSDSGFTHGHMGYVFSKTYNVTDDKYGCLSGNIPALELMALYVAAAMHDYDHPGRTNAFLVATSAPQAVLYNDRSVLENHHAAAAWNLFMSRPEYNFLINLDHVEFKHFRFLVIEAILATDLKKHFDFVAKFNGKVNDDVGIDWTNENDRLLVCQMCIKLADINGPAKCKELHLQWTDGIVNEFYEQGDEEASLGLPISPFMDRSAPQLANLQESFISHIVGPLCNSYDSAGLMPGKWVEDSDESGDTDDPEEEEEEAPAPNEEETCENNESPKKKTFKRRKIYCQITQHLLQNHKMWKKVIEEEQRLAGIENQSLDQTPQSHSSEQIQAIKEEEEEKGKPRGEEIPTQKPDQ

Measured: AC50
Further: assay procedure not described here.

Sequence of Adenosine receptor A2a (P29274 whole entry): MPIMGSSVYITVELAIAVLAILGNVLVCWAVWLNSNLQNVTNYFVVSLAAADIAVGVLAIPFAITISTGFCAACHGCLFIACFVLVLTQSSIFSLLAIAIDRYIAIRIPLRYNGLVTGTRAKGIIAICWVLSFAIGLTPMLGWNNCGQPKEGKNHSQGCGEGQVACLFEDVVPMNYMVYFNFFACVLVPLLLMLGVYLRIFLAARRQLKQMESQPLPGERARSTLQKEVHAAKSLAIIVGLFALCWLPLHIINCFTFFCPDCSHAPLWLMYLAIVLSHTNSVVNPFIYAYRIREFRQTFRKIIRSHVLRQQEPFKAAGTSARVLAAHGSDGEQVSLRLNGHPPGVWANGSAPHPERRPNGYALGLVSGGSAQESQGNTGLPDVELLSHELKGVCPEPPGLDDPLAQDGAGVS

Cc1c(O)c(=O)ccn1C [DEFERIPRONE]
> 30 µM: [1] | [2] | [3] | [4] | [5] | [6] | [7] | [8] | [9] | [10] | [11] | [12]

CC(=O)O[C@@]12CO[C@@H]1C[C@H](O)[C@@]1(C)C(=O)[C@H](O)C3=C(C)[C@@H](OC(=O)[C@H](O)[C@@H](NC(=O)OC(C)(C)C)c4ccccc4)C[C@@](O)([C@@H](OC(=O)c4ccccc4)[C@H]21)C3(C)C [DOCETAXEL ANHYDROUS]
> 30 µM: [1] | [2] | [3] | [4] | [5] | [6] | [7] | [8] | [9] | [10] | [11] | [12]

CN[C@@H](C)[C@H](O)c1ccccc1 [EPHEDRINE]
> 10 µM: [2] | [3] | [6] | [8] | [9] | [10] | [11]
> 30 µM: [1] | [4] | [5] | [7] | [12]

C#CC1(OC(N)=O)CCCCC1 [ETHINAMATE]
> 10 µM: [1] | [2] | [3] | [4] | [5] | [6] | [8] | [9] | [10] | [11]
> 30 µM: [7] | [12]

CCC1(C2=CCCCCC2)C(=O)NC(=O)NC1=O [HEPTABARBITAL]
> 30 µM: [7] | [12]
> 10 µM: [1] | [2] | [3] | [4] | [5] | [6] | [8] | [9] | [10] | [11]

CCCCCN(C)CCC(O)(P(=O)(O)O)P(=O)(O)O [IBANDRONIC ACID]
> 30 µM: [1] | [2] | [3] | [4] | [5] | [6] | [7] | [8] | [9] | [10] | [11]
1.9 µM: [12]

C1=Cc2cccc(OCC3CNCCO3)c2C1 (stereo not given) [INDELOXAZINE]
> 30 µM: [1] | [2] | [3] | [4] | [5] | [6] | [8] | [11] | [12]
12 µM: [9]
0.7 µM: [10]
> 10 µM: [7]

O=C(CCCCC(=O)Nc1c(I)cc(I)c(C(=O)O)c1I)Nc1c(I)cc(I)c(C(=O)O)c1I [IODIPAMIDE]
> 30 µM: [6] | [7] | [12]
> 10 µM: [1] | [2] | [3] | [4] | [5] | [8] | [9] | [10] | [11]

CC(C)[N+](C)(CCC(C(N)=O)(c1ccccc1)c1ccccc1)C(C)C [ISOPROPAMIDE]
> 10 µM: [1] | [2] | [3] | [4] | [5] | [6] | [8] | [9] | [10] | [11]
> 30 µM: [7] | [12]

COc1ccc(C(=O)NCc2ccc(OCCN(C)C)cc2)cc1OC [ITOPRIDE]
> 30 µM: [1] | [2] | [3] | [4] | [5] | [6] | [7] | [8] | [9] | [10] | [11] | [12]

CN1CC[C@]23CCCC[C@H]2[C@H]1Cc1ccc(O)cc13 [LEVORPHANOL]
> 10 µM: [1] | [3] | [4] | [5] | [8]
9 µM: [2]
> 30 µM: [6] | [7] | [9] | [10] | [11] | [12]

C#C[C@]1(O)CC[C@H]2[C@@H]3CCC4=CCCC[C@@H]4[C@H]3CC[C@@]21C [LYNESTRENOL]
> 30 µM: [1] | [2] | [3] | [4] | [5] | [6] | [7] | [8] | [9] | [10] | [12]
0.3 µM: [11]

CC1=CC(=O)c2ccccc2C1=O [MENADIONE]
17 µM: [11]
> 10 µM: [2] | [3] | [4] | [8] | [9] | [10]
> 30 µM: [1] | [5] | [6] | [7] | [12]

COc1ccccc1OCC(O)COC(N)=O (stereo not given) [METHOCARBAMOL]
> 10 µM: [1] | [2] | [3] | [4] | [6] | [8] | [9] | [10] | [11]
> 30 µM: [5] | [7] | [12]

C[C@]12CCC(=O)C=C1CC[C@@H]1[C@@H]2CC[C@@]2(C)[C@H]1CC[C@]2(C)O [METHYLTESTOSTERONE]
> 30 µM: [1] | [2] | [3] | [4] | [5] | [6] | [7] | [8] | [9] | [10] | [11] | [12]
